Tested on: Mitochondria-located protein genes
Experiment: DNA chip mRNA expression in yeast, mitochondria-located protein genes (Table 2)
Assay type: cell-based, Saccharomyces cerevisiae S288C
Details: cells incubated two hours with the chemical substance
Experimental: Yeast (Saccharomyces cerevisiae S288C (α SUC2mal mel gap2 CUP1)) were incubated at 25° C. on YPD medium (yeast extract 1%, polypepton 2%, glucose 2%). One of toxic chemical substances was added to the cells at logarithmic growth phase, and the cells were further incubated for two hours. Cells were cultured without any chemical substance in the same condition, and were used as control. Concentrations of the chemical substances were defined to inhibit the growth of the yeast but not lead to death.
After completion of the incubation, the culture was centrifuged to collect the cells. To the cells, sodium acetate buffer (50 mM sodium acetate, 10 mM EDTA, 1% SDS) was added, and the mixture was shaken at 65° C. for five minutes, followed by returning to room temperature, and obtaining the supernatant, of which the procedures were repeated two times. To the supernatant, ½ amount of a solution of phenol/chloroform was added, and the mixture was centrifuged to give a supernatant, which was added with an equal amount of chloroform, and the mixture was centrifuged to give a supernatant. To the supernatant, an equal amount of isopropanol containing 0.3 M sodium acetate was added, and the mixture was allowed to stand at room temperature for 30 minutes, after which the mixture was centrifuged to give a sediment of the whole RNAs. Seventy % ethanol was added to the sediment, and the mixture was again centrifuged to give a sediment, which was then dried and dissolved in water. mRNA was isolated from the whole RNAs as followings. In view of the fact that a poly A chain is attached to the 3′ terminus of mRNA, a polynucleotide having a poly T structure which was immobilized on the surface of latex beads was used to trap the mRNA, and then the mRNA was washed and eluted with spine column (Oligotex-dT30<Super>mRNA Purification Kit, Takara). Reverse transcription of the mRNA was conducted with a reverse transcriptase (Super Script II Reverse Transcriptase; catalogue No. 18064-014, GibcoBRL) using fluorescence-labeled nucleotides to give cDNAs that were introduced with Cy3-dUTP or Cy5-dUTP during the reverse transcription.
The labeled cDNAs were dissolved in TE buffer (10mM Tris-HCl/1 mM EDTA, pH8.0), and the solution was dropped on the DNA chip containing the whole genes of yeast (DNA Chip Research Inc. Japan) so that the cDNAs were hybridized on the DNA chip at 65° C. for over 12 hours. The fluoresces intensity of the DNA chip was read with a scanner, and the ratio relative to the fluorescence intensity resulting from the absence of chemical substance was estimated as the following, which is shown in Tables 1 to 9: […]

Cl[C@H]1[C@H](Cl)[C@@H](Cl)[C@@H](Cl)[C@H](Cl)[C@H]1Cl [(7), γ-hexachlorocyclohexane]
The level of expressed mRNA in the presence of chemical substance/The level of expressed mRNA in the absence of chemical substance (yeast gene YAL039C): 1.0 | The level of expressed mRNA in the presence of chemical substance/The level of expressed mRNA in the absence of chemical substance (yeast gene YBL022C): 1.0 | The level of expressed mRNA in the presence of chemical substance/The level of expressed mRNA in the absence of chemical substance (yeast gene YBL030C): 0.9 | The level of expressed mRNA in the presence of chemical substance/The level of expressed mRNA in the absence of chemical substance (yeast gene YBL038W): 8.0 | The level of expressed mRNA in the presence of chemical substance/The level of expressed mRNA in the absence of chemical substance (yeast gene YBL099W): 0.9 | The level of expressed mRNA in the presence of chemical substance/The level of expressed mRNA in the absence of chemical substance (yeast gene YBR003W): 1.1 | The level of expressed mRNA in the presence of chemical substance/The level of expressed mRNA in the absence of chemical substance (yeast gene YBR044C): 1.5 | The level of expressed mRNA in the presence of chemical substance/The level of expressed mRNA in the absence of chemical substance (yeast gene YBR091C): 1.0 | The level of expressed mRNA in the presence of chemical substance/The level of expressed mRNA in the absence of chemical substance (yeast gene YBR122C): 2.0 | The level of expressed mRNA in the presence of chemical substance/The level of expressed mRNA in the absence of chemical substance (yeast gene YBR185C): 1.2 | The level of expressed mRNA in the presence of chemical substance/The level of expressed mRNA in the absence of chemical substance (yeast gene YBR221C): 1.5 | The level of expressed mRNA in the presence of chemical substance/The level of expressed mRNA in the absence of chemical substance (yeast gene YBR251W): 1.4 | The level of expressed mRNA in the presence of chemical substance/The level of expressed mRNA in the absence of chemical substance (yeast gene YBR282W): 1.2 | The level of expressed mRNA in the presence of chemical substance/The level of expressed mRNA in the absence of chemical substance (yeast gene YCL057W): 1.4 | The level of expressed mRNA in the presence of chemical substance/The level of expressed mRNA in the absence of chemical substance (yeast gene YCR046C): 1.2 | The level of expressed mRNA in the presence of chemical substance/The level of expressed mRNA in the absence of chemical substance (yeast gene YCR083W): 1.8 | The level of expressed mRNA in the presence of chemical substance/The level of expressed mRNA in the absence of chemical substance (yeast gene YDL067C): 0.8 | The level of expressed mRNA in the presence of chemical substance/The level of expressed mRNA in the absence of chemical substance (yeast gene YDL181W): 1.1 | The level of expressed mRNA in the presence of chemical substance/The level of expressed mRNA in the absence of chemical substance (yeast gene YDL198C): 1.0 | The level of expressed mRNA in the presence of chemical substance/The level of expressed mRNA in the absence of chemical substance (yeast gene YDR079W): 1.3 | The level of expressed mRNA in the presence of chemical substance/The level of expressed mRNA in the absence of chemical substance (yeast gene YDR178W): 0.6 | The level of expressed mRNA in the presence of chemical substance/The level of expressed mRNA in the absence of chemical substance (yeast gene YDR231C): 1.7 | The level of expressed mRNA in the presence of chemical substance/The level of expressed mRNA in the absence of chemical substance (yeast gene YDR258C): 3.9 | The level of expressed mRNA in the presence of chemical substance/The level of expressed mRNA in the absence of chemical substance (yeast gene YDR298C): 1.0 | The level of expressed mRNA in the presence of chemical substance/The level of expressed mRNA in the absence of chemical substance (yeast gene YDR347W): 1.2 | The level of expressed mRNA in the presence of chemical substance/The level of expressed mRNA in the absence of chemical substance (yeast gene YDR377W): 1.1 | The level of expressed mRNA in the presence of chemical substance/The level of expressed mRNA in the absence of chemical substance (yeast gene YDR529C): 0.5 | The level of expressed mRNA in the presence of chemical substance/The level of expressed mRNA in the absence of chemical substance (yeast gene YEL024W): 0.7 | The level of expressed mRNA in the presence of chemical substance/The level of expressed mRNA in the absence of chemical substance (yeast gene YEL039C): 0.6 | The level of expressed mRNA in the presence of chemical substance/The level of expressed mRNA in the absence of chemical substance (yeast gene YER178W): 1.6 | The level of expressed mRNA in the presence of chemical substance/The level of expressed mRNA in the absence of chemical substance (yeast gene YFL016C): 1.4 | The level of expressed mRNA in the presence of chemical substance/The level of expressed mRNA in the absence of chemical substance (yeast gene YGL018C): 1.1 | The level of expressed mRNA in the presence of chemical substance/The level of expressed mRNA in the absence of chemical substance (yeast gene YGL187C): 0.6 | The level of expressed mRNA in the presence of chemical substance/The level of expressed mRNA in the absence of chemical substance (yeast gene YGL191W): 1.0 | The level of expressed mRNA in the presence of chemical substance/The level of expressed mRNA in the absence of chemical substance (yeast gene YGR008C): 3.7 | The level of expressed mRNA in the presence of chemical substance/The level of expressed mRNA in the absence of chemical substance (yeast gene YGR028W): 2.1 | The level of expressed mRNA in the presence of chemical substance/The level of expressed mRNA in the absence of chemical substance (yeast gene YGR062C): 1.3 | The level of expressed mRNA in the presence of chemical substance/The level of expressed mRNA in the absence of chemical substance (yeast gene YGR076C): 1.7 | The level of expressed mRNA in the presence of chemical substance/The level of expressed mRNA in the absence of chemical substance (yeast gene YGR082W): 0.9 | The level of expressed mRNA in the presence of chemical substance/The level of expressed mRNA in the absence of chemical substance (yeast gene YGR174C): 1.0 | The level of expressed mRNA in the presence of chemical substance/The level of expressed mRNA in the absence of chemical substance (yeast gene YGR244C): 3.9 | The level of expressed mRNA in the presence of chemical substance/The level of expressed mRNA in the absence of chemical substance (yeast gene YHR008C): 0.7 | The level of expressed mRNA in the presence of chemical substance/The level of expressed mRNA in the absence of chemical substance (yeast gene YIL155C): 2.2 | The level of expressed mRNA in the presence of chemical substance/The level of expressed mRNA in the absence of chemical substance (yeast gene YJL096W): 1.7 | The level of expressed mRNA in the presence of chemical substance/The level of expressed mRNA in the absence of chemical substance (yeast gene YJL102W): 0.6 | The level of expressed mRNA in the presence of chemical substance/The level of expressed mRNA in the absence of chemical substance (yeast gene YJL133W): 0.5 | The level of expressed mRNA in the presence of chemical substance/The level of expressed mRNA in the absence of chemical substance (yeast gene YJL166W): 0.8 | The level of expressed mRNA in the presence of chemical substance/The level of expressed mRNA in the absence of chemical substance (yeast gene YJL180C): 1.6 | The level of expressed mRNA in the presence of chemical substance/The level of expressed mRNA in the absence of chemical substance (yeast gene YJR045C): 1.0 | The level of expressed mRNA in the presence of chemical substance/The level of expressed mRNA in the absence of chemical substance (yeast gene YJR077C): 0.7
